For one assay, the system named is 3D7 P. falciparum strain. Briefly: parasite proliferation assay in infected red blood cells (SYBR Green I). The conditions noted are these: Plasmodium falciparum, 3D7, Erythrocyte, 3D7 strain; read-out: EC50 3D7 strain. Type of assay: cell-based, Plasmodium falciparum. Put shortly: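 P. falciparum 3D7 grown in O+ human erythrocytes to 3–8% parasitemia and exposed to compounds. Proliferation read as the increase in parasite DNA. Detection used SYBR Green I in saponin/triton-X/EDTA lysis buffer, with overnight lysis at room temperature.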

The test system of another assay is W2 strain. Kind of assay: parasite proliferation assay in infected red blood cells (SYBR Green I), W2 strain. Format: cell-based. The conditions noted are these: Plasmodium falciparum, Erythrocyte. The source says: Compounds of the invention can be assayed to measure their capacity to inhibit proliferation of parasitemia in infected red blood cells. The proliferation is quantified by the addition of SYBR Green I (INVITROGEN)® dye which has a high affinity for double stranded DNA.

On to `CC1CC(Nc2c(-c3ccc(F)cc3)nc3n2CCN(C(=O)CN)C3(C)C)CC(C)(C)C1` (stereo not drawn) [Compound 666], for which the figures for the EC50 with 3D7 P. falciparum strain and in the assay on W2 strain were greater than 10000 nM and 4970 nM, respectively.

Regarding `CC1(C)c2nc(-c3ccc(F)cc3)c(N[C@@H]3C[C@H]4CC[C@@H]3C4)n2CCN1C(=O)CN` [Compound 667], the EC50 with 3D7 P. falciparum strain is 104 nM; in the assay with W2 strain, 82 nM.

As to `CN(C)C1CCN(c2c(-c3ccc(F)cc3)nc3n2CCN(C(=O)CN)C3(C)C)C1` (stereo not drawn) [Compound 668], the values for the EC50 in the assay with 3D7 P. falciparum strain and in the assay with W2 strain were 3430 nM and greater than 10000 nM, respectively.

As for `CC1(C)c2nc(-c3ccc(F)cc3)c(N3CCC(N4CCCCC4)CC3)n2CCN1C(=O)CN` [Compound 669], the results for the EC50 in the assay with 3D7 P. falciparum strain and in the assay on W2 strain were 3980 nM and greater than 10000 nM, respectively.

As to `CC1(C)c2nc(-c3ccc(F)cc3)c(NC3CCCC3)n2CCN1C(=O)CN` [Compound 670], the EC50 in the assay with 3D7 P. falciparum strain amounted to 402 nM; in the assay on W2 strain it was 711 nM.

As for `CC1(C)c2nc(-c3ccc(F)cc3)c(NC3CCC3)n2CCN1C(=O)CN` [Compound 671], the values for the EC50 in the assay on 3D7 P. falciparum strain and in the assay on W2 strain were 1290 nM and 1090 nM, respectively.

In the case of `CC1(C)c2nc(-c3ccc(F)cc3)c(NC3CCOCC3)n2CCN1C(=O)CN` [Compound 672], the EC50 in the assay on 3D7 P. falciparum strain stood at 9840 nM; with W2 strain, 7140 nM.

As for `CN1CCC(N2CCN(c3c(-c4ccc(F)cc4)nc4n3CCN(C(=O)CN)C4(C)C)CC2)CC1` [Compound 673], the EC50 with 3D7 P. falciparum strain is 8870 nM; in the assay on W2 strain it was greater than 8720 nM.

For the compound `CCC(C)CNc1c(-c2ccc(F)cc2)nc2n1CCN(C(=O)CN)C2(C)C` (stereo not drawn) [Compound 674], the values for the EC50 with 3D7 P. falciparum strain and in the assay with W2 strain were 6280 nM and 6310 nM, respectively.

Take `Cc1ccc(Nc2c(-c3ccc(F)cc3)nc3n2CC(=O)N(CCN(C)C)C3(C)C)cc1F` [Compound 681]: the EC50 came out at 272 nM in the assay on 3D7 P. falciparum strain and 196 nM with W2 strain.

As for `Cc1ccc(Nc2c(-c3ccc(F)cc3)nc3n2CC(=O)N(CCN(C)C)C3(C)C)cc1Cl` [Compound 682], the EC50 with 3D7 P. falciparum strain turned out to be 124 nM; with W2 strain, 111 nM.

As for `Cc1cc(Nc2c(-c3ccc(F)cc3)nc3n2CC(=O)N(CCN(C)C)C3(C)C)ccc1F` [Compound 683], the EC50 is 125 nM in the assay on 3D7 P. falciparum strain and 112 nM with W2 strain.

For `Cc1cc(Nc2c(-c3ccc(F)cc3)nc3n2CC(=O)N(CCN(C)C)C3(C)C)ccc1Cl` [Compound 684], the EC50 with 3D7 P. falciparum strain came to 30 nM; with W2 strain it was 17 nM.

For `CN(C)CCN1C(=O)Cn2c(nc(-c3ccc(F)cc3)c2Nc2ccc(Cl)c(F)c2)C1(C)C` [Compound 685], the results for the EC50 in the assay with 3D7 P. falciparum strain and with W2 strain were 173 nM and 131 nM, respectively.

With `Cc1cc(Nc2c(-c3cccc(F)c3)nc3n2CC(=O)N(CC2CNC2)C3(C)C)ccc1F` [Compound 686], the EC50 worked out at 628 nM with 3D7 P. falciparum strain and 524 nM with W2 strain.

Take `Cc1cc(Nc2c(-c3cccc(F)c3)nc3n2CC(=O)N(CCCN)C3(C)C)ccc1F` [Compound 689]: the EC50 in the assay with 3D7 P. falciparum strain worked out at 512 nM; in the assay with W2 strain it was 295 nM.

For `Cc1cc(Nc2c(-c3cccc(F)c3)nc3n2CC(=O)N(CCCO)C3(C)C)ccc1F` [Compound 690], the EC50 in the assay on 3D7 P. falciparum strain was determined as 866 nM; in the assay with W2 strain, 760 nM.

For the compound `COCCCN1C(=O)Cn2c(nc(-c3cccc(F)c3)c2Nc2ccc(F)c(C)c2)C1(C)C` [Compound 691], the EC50 is 68 nM in the assay with 3D7 P. falciparum strain and 60 nM in the assay on W2 strain.

Turning to `Cc1cc(Nc2c(-c3cccc(F)c3)nc3n2CC(=O)N(CCCC(=O)O)C3(C)C)ccc1F` [Compound 692, 4-(3-(4-fluoro-3-methylphenylamino)-2-(3-fluorophenyl)-8,8-dimethyl-6-oxo-5,6-dihydroimidazo[1,2-a]pyrazin-7(8H)-yl)butanoic acid], the EC50 worked out at 6450 nM in the assay with 3D7 P. falciparum strain and 5340 nM in the assay on W2 strain.

For the compound `CC1(C)c2nc(-c3ccc(F)cc3)c(Cc3ccc(F)cc3)n2CCN1C(=O)CN` [Compound 693], the EC50 in the assay on 3D7 P. falciparum strain and in the assay on W2 strain was 8 nM throughout.

`Cc1ccc(Cc2c(-c3ccc(F)cc3)nc3n2CCN(C(=O)CN)C3(C)C)cc1` [Compound 694]: the EC50 stood at 11 nM with 3D7 P. falciparum strain and 7 nM in the assay with W2 strain.

As for `COc1ccc(Cc2c(-c3ccc(F)cc3)nc3n2CCN(C(=O)CN)C3(C)C)cc1` [Compound 695, 2-amino-1-(2-(4-fluorophenyl)-3-(4-methoxybenzyl)-8,8-dimethyl-5,6-dihydroimidazol[1,2-a]pyrazin-7(8H)-yl)ethanone], the values for the EC50 with 3D7 P. falciparum strain and in the assay on W2 strain were 17 nM and 19 nM, respectively.

On to `CC1(C)c2nc(-c3ccc(F)cc3)c(Cc3ccc(F)c(F)c3)n2CCN1C(=O)CN` [Compound 696], for which the values for the EC50 in the assay with 3D7 P. falciparum strain and in the assay with W2 strain were 20 nM and 22 nM, respectively.

Take `CC(C)(N)C(=O)N1CCn2c(nc(-c3ccc(F)cc3)c2Cc2ccc(F)cc2)C1` [Compound 697]: the EC50 in the assay on 3D7 P. falciparum strain worked out at 362 nM; with W2 strain, 256 nM.

In the case of `CN1CCN(Cc2c(-c3ccc(F)cc3)nc3n2CCN(C(=O)CN)C3(C)C)CC1` [Compound 698], the concentration for a half-maximal effect (EC50) with 3D7 P. falciparum strain was 8810 nM; with W2 strain, 9020 nM.

Take `Cc1ccc(CC(N)C(=O)N2CCn3cc(-c4ccc(F)cc4)nc3C2(C)C)cc1` (stereo not drawn) [Compound 700, 2-amino-1-(2-(4-fluorophenyl)-8,8-dimethyl-5,6-dihydroimidazo[1,2-a]pyrazin-7(8H)-yl)-3-p-tolylpropan-1-one]: the EC50 was greater than 9510 nM in the assay with 3D7 P. falciparum strain and 7000 nM in the assay on W2 strain.

For `CC1(C)c2nc(-c3ccc(F)cc3)cn2CCN1C(=O)C(N)CCc1cccc(F)c1` (stereo not drawn) [Compound 701], the half-maximal effective concentration (EC50) was found to be 8270 nM in the assay with 3D7 P. falciparum strain and 7350 nM in the assay with W2 strain.

With `CC1(C)c2nc(-c3ccc(F)cc3)cn2CCN1C(=O)C(N)CCc1ccc(Cl)cc1` (stereo not drawn) [Compound 702], the EC50 in the assay with 3D7 P. falciparum strain stood at 6030 nM; in the assay with W2 strain, 5850 nM.

As to `CC1(C)c2nc(-c3ccc(F)cc3)cn2CCN1C(=O)C(N)CC1CCCCC1` (stereo not drawn) [Compound 703], the EC50 with 3D7 P. falciparum strain came to 8570 nM; with W2 strain, 8290 nM.

On to `Cc1ccc(-c2c(-c3ccc(F)cc3)nc3n2CCN(C(=O)CN)C3(C)C)cc1` [Compound 704, 2-amino-1-(2-(4-fluorophenyl)-8,8-dimethyl-3-p-tolyl-5,6-dihydroimidazo-[1,2-a]pyrazin-7(8H)-yl)ethanone], for which the EC50 in the assay with 3D7 P. falciparum strain came to 236 nM; with W2 strain it was 232 nM.

Turning to `CC1(C)c2nc(-c3ccc(F)cc3)c(-c3ccc(F)cc3)n2CCN1C(=O)CN` [Compound 705], the EC50 turned out to be 1240 nM in the assay with 3D7 P. falciparum strain and 760 nM with W2 strain.

For `CC1(C)c2nc(-c3ccc(F)cc3)c(-c3ccc(F)c(Cl)c3)n2CCN1C(=O)CN` [Compound 706], the results for the EC50 in the assay with 3D7 P. falciparum strain and in the assay on W2 strain were 252 nM and 237 nM, respectively.

As to `CC1(C)NCCn2c1nc(-c1ccc(F)cc1)c2C(=O)Nc1ccc(F)cc1` [Compound 707, N,2-bis(4-fluorophenyl)-8,8-dimethyl-5,6,7,8-tetrahydroimidazo[1,2-a]pyrazine-3-carboxamide], the EC50 with 3D7 P. falciparum strain was 6540 nM; with W2 strain, greater than 10000 nM.

For `CC1(C)c2nc(-c3ccc(F)cc3)c(C(=O)Nc3ccc(F)cc3)n2CCN1C(=O)CN` [Compound 708], the EC50 with 3D7 P. falciparum strain was found to be 809 nM; in the assay with W2 strain it was 1130 nM.

On to `CC1(C)c2nc(-c3ccc(F)cc3)c(Oc3ccc(F)cc3)n2CCN1C(=O)CN` [Compound 709, 2-amino-1-(3-(4-fluorophenoxy)-2-(4-fluorophenyl)-8,8-dimethyl-5,6-dihydroimidazo[1,2-a]pyrazin-7(8H)-yl)ethanone], for which the EC50 was found to be 3 nM with 3D7 P. falciparum strain and 8 nM with W2 strain.

Turning to `CC1(C)c2nc(-c3ccc(F)cc3)c(Sc3cccc(F)c3)n2CCN1C(=O)CN` [Compound 714], the figures for the EC50 in the assay with 3D7 P. falciparum strain and in the assay with W2 strain were 7 nM and 4 nM, respectively.

As for `CC1(C)c2nc(-c3ccc(F)cc3)c(Sc3ccc(F)cc3)n2CCN1C(=O)CN` [Compound 715], the EC50 with 3D7 P. falciparum strain and in the assay on W2 strain was 6 nM each time.

Take `CC1(C)c2nc(-c3ccc(F)cc3)c(Sc3ccc(Cl)cc3)n2CCN1C(=O)CN` [Compound 716]: the EC50 in the assay with 3D7 P. falciparum strain was determined as 2 nM; in the assay with W2 strain, 1 nM.

As to `Cc1cc(C)cc(Sc2c(-c3ccc(F)cc3)nc3n2CCN(C(=O)CN)C3(C)C)c1` [Compound 717], the EC50 in the assay with 3D7 P. falciparum strain was 26 nM; with W2 strain, 16 nM.

Consider `CC1(C)c2nc(-c3ccc(F)cc3)c(Sc3ccc(F)c(F)c3)n2CCN1C(=O)CN` [Compound 718], for which the EC50 in the assay with 3D7 P. falciparum strain amounted to 8 nM; in the assay with W2 strain it was 6 nM.

`CC1(C)c2nc(-c3ccc(F)cc3)c([S+]([O-])c3cccc(F)c3)n2CCN1C(=O)CN` (stereo not drawn) [Compound 719]: the EC50 in the assay with 3D7 P. falciparum strain was 481 nM; with W2 strain, 361 nM.

Regarding `CC1(C)c2nc(-c3ccc(F)cc3)c([S+]([O-])c3ccc(F)cc3)n2CCN1C(=O)CN` (stereo not drawn) [Compound 720], the results for the EC50 in the assay on 3D7 P. falciparum strain and in the assay on W2 strain were 70 nM and 69 nM, respectively.

As for `Cc1cc(C)cc([S+]([O-])c2c(-c3ccc(F)cc3)nc3n2CCN(C(=O)CN)C3(C)C)c1` (stereo not drawn) [Compound 722], the EC50 was 381 nM with 3D7 P. falciparum strain and 281 nM in the assay on W2 strain.

For `CC1(C)c2nc(-c3ccc(F)cc3)c([S+]([O-])c3ccc(F)c(F)c3)n2CCN1C(=O)CN` (stereo not drawn) [Compound 723], the EC50 in the assay with 3D7 P. falciparum strain is 89 nM; in the assay with W2 strain, 68 nM.

Take `CC1(C)c2nc(-c3ccc(F)cc3)c([S+]([O-])c3ccc(Cl)cc3)n2CCN1C(=O)CN` (stereo not drawn) [Compound 724]: the results for the EC50 in the assay on 3D7 P. falciparum strain and in the assay on W2 strain were 509 nM and 287 nM, respectively.

In the case of `CC1(C)c2nc(-c3ccc(F)cc3)c(Nc3ccc(F)cc3)n2CCN1C(=O)CNC(=O)CCc1ccccc1` [Compound 726], the EC50 turned out to be 1920 nM with 3D7 P. falciparum strain and 1480 nM in the assay with W2 strain.

Consider `CC1(C)c2nc(-c3ccc(F)cc3)c(Nc3ccc(F)cc3)n2CCN1C(=O)CNC(=O)CCc1ccc2oc3ccccc3c2c1` [Compound 727], for which the values for the EC50 with 3D7 P. falciparum strain and in the assay on W2 strain were 6560 nM and 2970 nM, respectively.

In the case of `CC1(C)c2nc(-c3ccc(F)cc3)c(Nc3ccc(F)cc3)n2CCN1C(=O)CNC(=O)CCNC(=O)CCc1ccccc1` [Compound 728], the concentration giving a half-maximal response (EC50) was found to be 5400 nM with 3D7 P. falciparum strain and 1480 nM with W2 strain.

The record behind these values is patent publication US9469645B2, “Compounds and compositions for the treatment of parasitic diseases” (Novartis AG, priority 2009, dated 2016).
